Measurements from patent publication US9056111B1, “Selective efflux inhibitors and related pharmaceutical compositions and methods of treatment” (STC.UNM, priority 2011, dated 2015).
Where two headings read alike, the source gives them in different places.

Experiments:
ABCG2 = biological target: T1, ABCG2 (Homo sapiens, UniProt Q9UNQ0); assay: JC-1 efflux inhibition dose response, flow cytometry, Ig-MXP3 cells; details: for ~Fold G2 Selective (B1/G2): quotient of average ABCB1 IC50 and average ABCG2 IC50, efflux assay
T1 sequence (Q9UNQ0 1-655): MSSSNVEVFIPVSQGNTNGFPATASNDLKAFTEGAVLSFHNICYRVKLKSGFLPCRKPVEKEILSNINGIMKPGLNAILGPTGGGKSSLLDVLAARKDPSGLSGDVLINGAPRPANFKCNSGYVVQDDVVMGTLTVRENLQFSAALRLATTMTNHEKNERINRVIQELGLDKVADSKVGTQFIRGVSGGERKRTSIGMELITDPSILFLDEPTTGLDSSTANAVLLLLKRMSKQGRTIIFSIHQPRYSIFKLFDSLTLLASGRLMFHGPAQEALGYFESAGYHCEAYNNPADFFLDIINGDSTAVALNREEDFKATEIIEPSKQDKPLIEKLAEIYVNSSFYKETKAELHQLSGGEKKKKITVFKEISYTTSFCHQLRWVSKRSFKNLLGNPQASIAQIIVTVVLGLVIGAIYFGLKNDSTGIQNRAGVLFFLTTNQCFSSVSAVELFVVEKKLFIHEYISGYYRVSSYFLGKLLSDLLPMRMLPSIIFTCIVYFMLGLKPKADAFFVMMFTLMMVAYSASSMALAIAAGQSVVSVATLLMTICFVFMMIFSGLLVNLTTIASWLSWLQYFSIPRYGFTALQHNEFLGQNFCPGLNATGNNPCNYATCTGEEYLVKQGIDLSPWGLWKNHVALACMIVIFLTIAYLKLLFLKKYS
Procedure: (§1) The HyperCyt® high throughput flow cytometry platform (IntelliCyt™, Albuquerque, N. Mex.) was used to sequentially sample cells from 384-well microplates (2 μL/sample) for flow cytometer presentation at a rate of 40 samples per minute.^62-63 Flow cytometric analysis was performed on a CyAn™ flow cytometer (Beckman-Coulter, Fullerton, Calif.). The resulting time-gated data files were analyzed with HyperView® software to determine compound activity in each well. Inhibition response curves were fitted by Prism® software (GraphPad Software, Inc., San Diego, Calif.) using nonlinear least-squares regression in a sigmoidal dose response model with variable slope, also known as the four-parameter logistic equation. This type of time-gated flow cytometric data analysis was described in detail for a previous ABC transporter screen from our group.^56
(§2) The assay provider's ABCB1 over-expressing Jurkat-DNR cell line is used for confirmatory follow up instead of the CCRF-Adr cells. Each cell line (Jurkat-DNR and Ig-MXP3) is run separately against all compounds (no differential cell staining) in dose response. The assay is conducted in 384-well format in a total volume of 15.1 μL. Cells and reagents are added sequentially as follows: 1) PBS buffer (5 μL/well); 2) test compound (100 nL/well); 3) drug-resistant cells (10 μL/well) pre-stained with the JC-1 substrate at 1 μM. […] Nicardipine (50 μM) is added to each plate as a pan-inhibition positive control.
(§3) Each cell line (Jurkat-DNR and Ig-MXP3) was run separately against all compounds (no differential cell staining) in dose-response. The protocol differed from the single point screen as describe here. Cells and reagents were added sequentially as follows: 1) PBS buffer (5 μL per well); 2) test compound (100 nL per well); 3) drug-resistant cells (10 μL, per well) pre-exposed to the JC-1 substrate at 1 μM just prior to the well addition.

ABCB1 / ABCG2 = biological target: T2, ABCB1 / ABCG2 (Homo sapiens, UniProt Q9UNQ0); assay: as above; details: human, probe JC-1 (1 µM), ~Fold G2 Selective (B1/G2), quotient of average ABCB1 IC50 and average ABCG2 IC50, efflux assay
T2 sequence (Q9UNQ0 1-655): T1 sequence (Q9UNQ0 1-655)
Procedure: as §1, §2, §3

ABCB1 = ABCB1 (Homo sapiens, UniProt P08183); assay: JC-1 efflux inhibition dose response, flow cytometry, Jurkat-DNR cells; details: for IC50: Jurkat-DNR cells over-expressing ABCB1, averages of two to four replicates; for efflux inhibition activity ABCB1: JC-1 efflux, Jurkat-DNR
ABCB1, sequence (P08183 whole entry): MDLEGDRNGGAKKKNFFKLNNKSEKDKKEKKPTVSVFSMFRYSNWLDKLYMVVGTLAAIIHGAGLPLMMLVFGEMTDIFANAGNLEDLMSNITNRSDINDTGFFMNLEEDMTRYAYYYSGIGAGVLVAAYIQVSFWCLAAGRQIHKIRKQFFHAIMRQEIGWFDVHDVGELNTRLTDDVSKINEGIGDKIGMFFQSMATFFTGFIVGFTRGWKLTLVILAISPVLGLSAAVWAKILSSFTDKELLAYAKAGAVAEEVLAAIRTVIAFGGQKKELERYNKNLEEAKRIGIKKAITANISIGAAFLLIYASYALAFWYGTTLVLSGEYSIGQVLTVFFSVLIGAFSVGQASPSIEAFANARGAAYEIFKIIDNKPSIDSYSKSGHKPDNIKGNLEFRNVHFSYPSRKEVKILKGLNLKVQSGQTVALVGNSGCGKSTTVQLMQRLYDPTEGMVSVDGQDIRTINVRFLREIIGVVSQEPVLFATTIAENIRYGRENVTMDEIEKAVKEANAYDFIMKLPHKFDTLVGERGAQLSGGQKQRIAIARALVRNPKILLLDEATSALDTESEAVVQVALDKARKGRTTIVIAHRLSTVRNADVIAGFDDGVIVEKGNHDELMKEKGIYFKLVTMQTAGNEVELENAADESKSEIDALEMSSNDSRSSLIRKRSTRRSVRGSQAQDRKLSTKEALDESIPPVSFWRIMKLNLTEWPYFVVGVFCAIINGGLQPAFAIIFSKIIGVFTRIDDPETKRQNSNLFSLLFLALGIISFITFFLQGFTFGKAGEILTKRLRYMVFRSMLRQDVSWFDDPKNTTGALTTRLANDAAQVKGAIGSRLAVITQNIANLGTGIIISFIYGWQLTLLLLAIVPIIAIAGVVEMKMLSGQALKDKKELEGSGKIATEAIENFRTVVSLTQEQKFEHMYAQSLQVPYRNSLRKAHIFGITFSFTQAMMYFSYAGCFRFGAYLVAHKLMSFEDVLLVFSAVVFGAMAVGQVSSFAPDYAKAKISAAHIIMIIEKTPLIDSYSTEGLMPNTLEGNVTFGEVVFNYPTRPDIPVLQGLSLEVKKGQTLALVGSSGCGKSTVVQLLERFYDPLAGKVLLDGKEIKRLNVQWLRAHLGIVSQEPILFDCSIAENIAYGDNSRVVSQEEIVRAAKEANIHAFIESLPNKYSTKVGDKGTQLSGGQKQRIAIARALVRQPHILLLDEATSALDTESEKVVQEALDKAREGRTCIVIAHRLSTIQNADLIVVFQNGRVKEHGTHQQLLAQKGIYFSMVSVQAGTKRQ
Procedure: as §1
The assay provider's ABCB1 over-expressing Jurkat-DNR cell line is used for confirmatory follow up instead of the CCRF-Adr cells. Each cell line (Jurkat-DNR and Ig-MXP3) is run separately against all compounds (no differential cell staining) in dose response. The assay is conducted in 384-well format in a total volume of 15.1 μL. Cells and reagents are added sequentially as follows: 1) PBS buffer (5 μL/well); 2) test compound (100 nL/well); 3) drug-resistant cells (10 μL/well) pre-stained with the JC-1 substrate at 1 μM. Final in-well concentrations of test compound range from 50 μM to 69 nM over an 18 point dose response and the cell concentration is 1×10^6 cells/mL. Nicardipine (50 μM) is added to each plate as a pan-inhibition positive control. The plate is rotated end-over-end at 4 RPM and 25° C. for 30 minutes and then cell samples are analyzed and flow cytometric data of light scatter and fluorescence emission at 530+/−20 nm (488 nm excitation, FL1) are collected.
as §3, with “addition. Final in-well concentrations of test compound ranged from 50 μM to 69 nM over an 18 point dose-response and the cell concentration was 1×10^6 cells mL^−1.” for “addition.”

[1] = IC50 ABCB1 (efflux inhibition of JC-1 substrate)
[2] = read-out: IC50 ABCG2 (efflux inhibition of JC-1 substrate), Ig-MXP3 cells over-expressing ABCG2, averages of two to four replicates
[3] = read-out: IC50 ABCB1 (efflux inhibition of JC-1 substrate)

IC50 (ABCG2) [µM] | IC50 (ABCB1; [1]) [µM] | ~Fold G2 Selective (B1/G2) (ABCG2) [fold] | IC50 (ABCG2; [2]) [µM] | IC50 (ABCB1; [3]) [µM] | SMILES | selectivity ratio at 30 min (ABCB1 / ABCG2) | efflux inhibition activity ABCG2 (ABCG2; JC-1 efflux, Ig-MXP3) | efflux inhibition activity ABCB1 (ABCB1)
1.58 ± 0.63 | 4.79 ± 4.23 |  |  |  | O=C(c1ccoc1)N1CCN(c2cc(-c3ccccc3)nc3cc(-c4ccccc4)nn23)CC1 [Compound 62] | 3 |  | 
1.93 ± 0.48 | 4.69 ± 1.5 |  |  |  | O=C(c1ccoc1)N1CCN(c2cc(-c3ccccc3F)nc3cc(-c4cccc(Cl)c4)nn23)CC1 [Compound 26] | 2.4 |  | 
 |  |  |  |  | COc1ccc2c3c([nH]c2c1)[C@H](C=C(C)C)N1C(=O)[C@@H]2CCCN2C(=O)[C@@H]1C3 [Compound 3, reference compound] |  | no activity | no activity
1.19 ± 0.26 | 8.58 ± 0.63 | 7.2 |  |  | O=C(c1ccoc1)N1CCN(c2cc(-c3ccccc3)nc3cc(-c4cccc(Cl)c4)nn23)CC1 [Compound 11] | 7 |  | 
0.56 | 5.61 |  |  |  | O=C(c1ccoc1)N1CCN(c2cc(-c3ccccc3F)nc3cc(-c4ccccc4)nn23)CC1 [Compound 46] | 10 |  | 
0.58 | 3.45 |  |  |  | Cc1cccc(-c2cc3nc(-c4ccco4)cc(N4CCN(C(=O)c5ccoc5)CC4)n3n2)c1 [Compound 58] | 5.9 |  | 
0.93 ± 0.27 | 3.98 ± 1.3 |  |  |  | O=C(c1ccoc1)N1CCN(c2cc(-c3ccco3)nc3cc(-c4cccc(-c5ccco5)c4)nn23)CC1 [Compound 60] | 4.3 |  | 
1.45 ± 0.59 | 3.42 ± 1.64 |  |  |  | O=C(c1ccccc1)N1CCN(c2cc(-c3ccccc3)nc3cc(-c4cccc(Cl)c4)nn23)CC1 [Compound 13] | 2.4 |  | 
2.71 ± 1.95 | > 50 | 18.5 |  |  | O=C(OCc1ccccc1)N1CCN(c2cc(-c3ccco3)nc3cc(-c4ccccc4)nn23)CC1 [Compound 76] | ~19 |  | completely lost
2.37 ± 1.8 | 4.55 |  |  |  | COc1ccc(-c2cc(N3CCN(C(=O)c4ccoc4)CC3)n3nc(-c4ccccc4)cc3n2)cc1 [Compound 45] | 1.9 |  | 
0.84 ± 0.87 | 0.68 |  |  |  | Cc1ccc(-c2cc(N3CCN(C(=O)c4ccoc4)CC3)n3nc(-c4ccccc4)cc3n2)o1 [Compound 66] | 0.8 |  | 
 |  | 5.1 | 2.33 ± 2.23 | 11.9 ± 7.4 | Cc1occc1C(=O)N1CCN(c2cc(-c3ccco3)nc3cc(-c4ccccc4)nn23)CC1 [Compound 70] |  |  | 
6.45 | 11.8 |  |  |  | O=C(c1ccoc1)N1CCN(c2cc(-c3ccc(F)cc3)nc3cc(-c4ccccc4)nn23)CC1 [Compound 48] | 1.8 |  | 
1.62 ± 1.27 | 5.56 ± 1.25 |  |  |  | O=C(c1ccccc1)N1CCN(c2cc(-c3ccco3)nc3cc(-c4ccccc4)nn23)CC1 [Compound 69] | 3.4 |  | 
3.07 ± 1.88 | 8.99 ± 3.67 |  |  |  | c1ccc(CN2CCN(c3cc(-c4ccco4)nc4cc(-c5ccccc5)nn34)CC2)cc1 [Compound 75] | 2.9 |  | 
7.68 ± 1.69 | 27.7 ± 14.5 |  |  |  | CN(C)c1cc(-c2ccco2)nc2cc(-c3ccccc3)nn12 [Compound 82] | 3.6 |  | 

IC50 (ABCG2) [µM] | IC50 (ABCB1; [1]) [µM] | ~Fold G2 Selective (B1/G2) (ABCG2) [fold] | IC50 (ABCG2; [2]) [µM] | IC50 (ABCB1; [3]) [µM] | SMILES | selectivity ratio at 30 min (ABCB1 / ABCG2) | efflux inhibition activity ABCG2 (ABCG2; JC-1 efflux, Ig-MXP3) | efflux inhibition activity ABCB1 (ABCB1)
0.76 ± 0.43 | 1.31 ± 0.35 |  |  |  | O=C(c1ccoc1)N1CCN(c2cc(-c3ccccc3)nc3cc(-c4ccc(Br)cc4)nn23)CC1 [Compound 33] | 1.7 |  | 
 |  | 3.6 | 3.37 ± 1.19 | 12 ± 6.11 | Cc1cc(C(=O)N2CCN(c3cc(-c4ccco4)nc4cc(-c5ccccc5)nn34)CC2)c(C)o1 [Compound 72] |  |  | 
2.03 ± 0.11 | 3.99 ± 2.31 |  |  |  | O=C(c1ccccc1)N1CCN(c2cc(-c3ccccc3)nc3cc(-c4ccc(F)cc4)nn23)CC1 [Compound 43] | 2 |  | 
1.31 ± 0.23 | 1.85 ± 0.75 |  |  |  | O=C(c1ccccc1Cl)N1CCN(c2cc(-c3ccccc3)nc3cc(-c4cccc(Cl)c4)nn23)CC1 [Compound 17] | 1.4 |  | 
8.03 ± 2.18 | > 50 |  |  |  | O=C(Nc1ccccc1)C1CCN(c2cc(-c3ccco3)nc3cc(-c4ccccc4)nn23)CC1 [Compound 84] |  |  | 
1.56 ± 1.3 | 8.42 |  |  |  | O=C(c1ccoc1)N1CCN(c2cc(-c3ccco3)nc3cc(-c4cccs4)nn23)CC1 [Compound 51] | 5.4 |  | 
2.82 ± 1.91 | 2.89 ± 0.55 |  |  |  | COc1ccc(C(=O)N2CCN(c3cc(-c4ccccc4)nc4cc(-c5cccc(Cl)c5)nn34)CC2)cc1 [Compound 16] | 1 |  | 
8.88 ± 2.82 | > 50 |  |  |  | CN(C)CCN(C)c1cc(-c2ccco2)nc2cc(-c3ccccc3)nn12 [Compound 78] |  |  | 
4.65 ± 3.96 | 3.27 ± 1.43 |  |  |  | CC1CN(C(=O)c2ccoc2)CCN1c1cc(-c2ccco2)nc2cc(-c3ccccc3)nn12 (centres unmarked) [Compound 86] | 0.7 |  | 
5.19 ± 4.22 | 11.3 |  |  |  | Cc1ccc(-c2cc3nc(-c4ccco4)cc(N4CCN(C(=O)c5ccoc5)CC4)n3n2)cc1 [Compound 59] | 2.2 |  | 
 |  | 3.0 | 0.76 ± 0.06 | 2.31 ± 0.79 | COc1ccccc1-c1cc2nc(-c3ccccc3)cc(N3CCN(C(=O)c4ccccc4)CC3)n2n1 [Compound 41] |  |  | 
> 50 | > 50 |  |  |  | O=S(=O)(c1ccccc1)N1CCN(c2cc(-c3ccccc3)nc3cc(-c4cccc(Cl)c4)nn23)CC1 [Compound 25] |  |  | 
 |  | 3.6 | 1.38 ± 1.04 | 4.93 ± 1.76 | O=C(c1ccsc1)N1CCN(c2cc(-c3ccco3)nc3cc(-c4ccccc4)nn23)CC1 [Compound 68] |  |  | 
 |  | 2.0 | 3.68 ± 2.21 | 7.32 ± 2.52 | Cc1coc(C)c1C(=O)N1CCN(c2cc(-c3ccco3)nc3cc(-c4ccccc4)nn23)CC1 [Compound 71] |  |  | 
 |  | 3.1 | 2.84 ± 0.96 | 8.83 ± 6.63 | O=C(c1coc2ccccc12)N1CCN(c2cc(-c3ccco3)nc3cc(-c4ccccc4)nn23)CC1 [Compound 73] |  |  | 
 |  | 2.9 | 1.03 ± 0.17 | 3 ± 0.57 | COc1ccccc1-c1cc2nc(-c3ccccc3)cc(N3CCN(C(=O)c4ccco4)CC3)n2n1 [Compound 37] |  |  | 
